Reference: patent publication US10722582B2, “Targeted antimicrobial photodynamic therapy” (Purdue Research Foundation, priority 2018, dated 2020)
Marks after values point to notes of the source that are not given here.

Key:
[1] = test system: S. aureus (PCI 1203; ATCC 10537); experiment: aPDI with CFL irradiation (406 nm), planktonic bacteria, drop-plate colony count; format: cell-based, Staphylococcus aureus; settings: for potency relative to dark toxicity (0 min exposure): 3-log reduction
Description: The aPDI properties of Ga-PpIX were compared against PpIX, whose photosensitizer activities are well known and whose optical profile is similar to that of Ga-PpIX (FIG. 2).
(§1) All bacterial strains were cultured at 37° C. in an aerobic atmosphere unless otherwise noted. […] Bacterial counts were estimated in units of cfu/mL by plating serial dilutions onto agar plates, followed by incubation for 16 hours at 37° C. […] Further details and variations on iron-deficient culture conditions are provided in Supporting Information.
(§2) Antimicrobial assays were performed on planktonic bacteria at 10^7 cfu/mL with variable exposure times to CFL irradiation, followed by plating on agar and incubation at 37° C. […] The irradiated bacteria were plated onto agar in serial tenfold dilutions (10^7-10^1 cfu/mL); controls included one set of wells without photosensitizer, and one set of wells with photosensitizer but without 15 min irradiation, prior to plating (dark toxicity). Bacterial counts were determined by the drop-plate method using TS-agar plates, and reported in colony-forming units per milliliter (cfu/mL).
(§3) The irradiation source consisted of a 20-W compact fluorescent lightbulb (CFL; Sunlite SL20/BLB) housed in an ellipsoidal reflector dome.

S. aureus (PCI 1203) = experiment: Competitive hemin uptake assay (fluorescence microscopy); format: cell-based, Staphylococcus aureus; settings: for Fluorescence after 15 min / Fluorescence after 15 min exposure + 1 equiv. hemin: Fe-deficient conditions (TS media containing 3 mM bipy), no background subtraction
Description: To elucidate the relevant structural features for the specific uptake of Ga-PpIX by S. aureus, we performed a competitive uptake assay using one equivalent of hemin against Ga-PpIX, PpIX, and eleven other fluorescent PpIX derivatives, with evaluation by fluorescence microscopy after 15 minutes of co-incubation (FIG. 5 and Table 4). These studies were partly guided by insights taken from the X-ray structures of hemin and Ga-PpIX within the binding pocket of IsdH: (i) coordination of the metal center by an apical tyrosine residue; (ii) the flanking of vinyl groups on pyrrole rings A and B against nearby aromatic residues; and (iii) the extension and presumed hydration of the propionyl groups (rings C and D) outside of the binding pocket.
Bacteria were cultured and assayed in iron-deficient media unless otherwise noted. A stock solution of Ga-PpIX (14.6 μM) was prepared by dispersing 5 mg in 1 mL of 10% DMSO in PBS for 10 minutes in an ultrasonic cleaning bath protected from light, followed by filtration and 10× dilution in PBS just prior to use. Bacterial suspensions (0.5 mL) were treated with freshly prepared solutions of PpIX derivatives for specified periods (5-15 min), then harvested by centrifugation at 5.2 g for 5 minutes, redispersed twice in 0.5 mL deionized water, and centrifuged a third time. A 10-μL aliquot of concentrated bacteria was deposited onto a glass slide and dried in air for 20 min, then imaged by fluorescence microscopy as described above. For details on fluorescence image processing and quantitative analysis, see Supporting Information.
S. aureus (PCI 1203; ATCC 10537) was first cultured in standard TS broth, then in media containing 3 mM bipyridine. Bacteria were pelleted and washed with PBS buffer three times, then resuspended to a final concentration of 10^8 cfu/mL. Stock solutions of hemin and PpIX derivatives 1-13 were prepared at initial concentrations of 292 μM; hemin and fluorescent PpIX solutions were mixed in a 1:1 ratio (0.5 mL), then added to 0.5 mL of bacterial suspension and allowed to sit for 15 min at room temperature. For control studies, hemin or fluorophore solutions were substituted with PBS to maintain constant […]. Bacteria were harvested and washed as described above, then evaluated by fluorescence microscopy for relative uptake efficiency.
Darkfield and fluorescent images were acquired in succession, with the former used to map regions of interest (ROIs) by tracing the outlines of bacteria (FIG. 8). Three images were acquired for each sample; in each case, the tracing map was overlaid onto the fluorescence image to calculate pixel intensities within each ROI, using the mean pixel intensity for quantitative analysis. Bacteria were also imaged without treatment with PpIX analogs, most of which produced values close to that of background except for Salmonella enterica, which served as the upper limit of autofluorescence (cf. FIG. 4). Data collection and image analyses were performed by the same user to ensure consistency for comparative analysis.

S. epidermis (ATCC 155) = experiment: aPDI with CFL irradiation (406 nm), planktonic bacteria, drop-plate colony count; format: cell-based, Staphylococcus epidermidis; settings: for potency relative to dark toxicity (0 min exposure): 15 min CFL, 3-log reduction
Description: as §1, §2, §3

MRSA385 = experiment: Antibacterial activity assay with LED light; format: cell-based, Staphylococcus aureus
Description: (§4) Antibacterial activity assay general protocol: Used LED light to test conditions. Bacteria were grown in TS broth, followed by 3 mM bipyridine in TS broth until log phase. Bacteria were then diluted with PBS, to OD 0.1 (˜10^) and then to ˜10^7 cfu/mL. 100 uL of bacteria were placed in 96 well plates with the appropriate GaPpIX concentration. 2× serial dilutions were then done to obtain other GaPpIX concentrations. Each concentration was done in triplicate. Bacteria were left incubating and irradiating for different amount of times at different light powers or left in the dark. 10× Serial dilutions were done and bacteria were plated for colony counting using the drop-plate technique. Colonies were counted after 24 hours. As reported herein, a 3-log reduction equals measurable antimicrobial action; a 6-log reduction equals total eradication.
(§5) Stock solution preparation (AVM-3-36, 10 nm AgNP). Prepared a solution of (AVM-2-273) GaPpIX-apoHb 1 mg/mL in MP H2O, deaerated. Took 10 mL of 10 nm AgNPs, centrifuged at 900 G for 5 min (Beckman, 3100 RPM), took supernantant and added 200 uL of GaPpIXHb. After overnight, centrifuged 3000 RPM g for 5 minutes (Beckman). Took supernantant and centrifuged using a 100 K CentriCon tube at 4000 RPM for 5 minutes, 3×. Added 15 mM borate buffer to NPs. Based on calibration curve, the stock solution is 1.94 ug/mL AgNP, so stock: 79 μg/mL AgNP, 10.37 μg/mL GaPpIXHb, 0.446 μg/mL GaPpIX (refer to AVM-2-293A and AVM-3-3).
(§6) The following antibacterial activity measurements were assayed in the presence of AgNP.

MRSA383 = experiment: Antibacterial activity assay with LED light; format: cell-based, Staphylococcus aureus
Description: as §4, §5, §6

MRSA387 = experiment: Antibacterial activity assay with LED light; format: cell-based, Staphylococcus aureus
Description: as §4, §5, §6

MRSA386 = experiment: Antibacterial activity assay with LED light; format: cell-based, Staphylococcus aureus
Description: as §4, §5, §6

[2] = 0 min (dark), no irradiation (dark toxicity)
[3] = 15 min CFL 406 nm, 12.4 mW/cm^2 (11.2 J/cm^2)
[4] = one equivalent of hemin, 15 minutes of co-incubation

| Molecule | Antimicrobial activity (minimum 3-log CFU reduction) [1, 2] [μM] | Antimicrobial activity (minimum 3-log CFU reduction) [1, 3] [μM] | Eradication (6 log reduction) ([1]; 15 min CFL (11.2 J/cm^2)) [μM] | potency relative to dark toxicity (0 min exposure) ([1]; 15 min CFL) [x] | Eradication (6 log reduction) ([1]; No irradiation (dark toxicity)) [μM] | Fluorescence after 15 min (S. aureus (PCI 1203)) [a.u.] | Fluorescence after 15 min exposure + 1 equiv. hemin (S. aureus (PCI 1203)) [a.u.] | Antimicrobial activity (minimum 3-log CFU reduction) (S. epidermis (ATCC 155); [2]) [μM] | Antimicrobial activity (minimum 3-log CFU reduction) (S. epidermis (ATCC 155); 15 min CFL (11.2 J/cm^2)) [μM] | potency relative to dark toxicity (0 min exposure) (S. epidermis (ATCC 155)) [x] | Eradication (6 log reduction) (S. epidermis (ATCC 155); No irradiation (dark toxicity)) [μM] | further results |
| --- | --- | --- | --- | --- | --- | --- | --- | --- | --- | --- | --- | --- |
| C=CC1=C(C)c2cc3[nH]c(cc4nc(cc5[nH]c(cc1n2)c(C)c5CCC(=O)O)C(CCC(=O)O)=C4C)c(C)c3C=C [PpIX (2), PpIX, reference compound] | 36 | 1.1 | 2.3 | 32 | 73 | 16.70 | 9.4 | >146 | 4.5 | >32 | >146 | effect of hemin competition on uptake (S. aureus (PCI 1203); [4]): moderately affected by hemin; Antimicrobial activity (minimum 3-log CFU reduction) (S. epidermis (ATCC 155); 0 min (dark), no irradiation (dark toxicity), listed as PpIX): >146^d μM; Eradication (6 log reduction) (S. epidermis (ATCC 155); 15 min CFL (11.2 J/cm^2)): 9 μM; Antimicrobial activity (minimum 3-log CFU reduction) (S. epidermis (ATCC 155); 15 min CFL (11.2 J/cm^2), listed as PpIX): 4.6 μM |
| Ga(III)-protoporphyrin [Ga-PpIX (1)] | >60 | 0.47 | 7.5 | >128 | 120 | 42.55 | 10.0 | 146 | 0.57 | 256 | 146 | Antimicrobial activity (minimum 3-log CFU reduction) ([1]; 5 min CFL 406 nm, 12.4 mW/cm^2 (3.7 J/cm^2)): 3.75 μM; Eradication (6 log reduction) ([1]; 5 min CFL (3.7 J/cm^2)): 15 μM; potency relative to dark toxicity (0 min exposure) ([1]; 5 min CFL): >16x; concentration for >99.9% reduction ([1]; 15 minutes of CFL irradiation): 470 nM; increase in potency relative to Ga-PpIX dark toxicity (>99.9% reduction) ([1]; 15 minutes of CFL irradiation): 128 fold; increase in potency relative to Ga-PpIX dark toxicity (total eradication, >6 log reduction) ([1]; 15 minutes of CFL irradiation): 16 fold; reduction in fluorescence by competition with hemin (S. aureus (PCI 1203); [4]): greater than 80%; concentration for 3-log reduction (MRSA385): 89 nM; concentration for 6-log reduction (MRSA385): 470 nM; concentration for 3-log reduction (MRSA383): 59 nM; concentration for 6-log reduction (MRSA383): 118 nM; concentration for 3-log reduction (MRSA387): 59 nM; concentration for 6-log reduction (MRSA387): 1900 nM; concentration for 3-log reduction (MRSA386): 118 nM; concentration for 6-log reduction (MRSA386): 235 nM; Eradication (6 log reduction) (S. epidermis (ATCC 155); 15 min CFL (11.2 J/cm^2), listed as Ga-PpIX): 1.1 μM; Eradication (6 log reduction) (S. epidermis (ATCC 155); 15 min CFL (11.2 J/cm^2), listed as GaPpIX (1)): 4.5 μM; bactericidal activity (S. epidermis (ATCC 155); CFL irradiation, clinical isolate from a skin lesion): 570 nM |
